In BigSolDB 2.1:

COc1ccccc1OCCNCC(O)COc1cccc2[nH]c3ccccc3c12 (stereo not given)
Conditions	solubility (mole fraction)
in PEG-400, 288.15 K	0.0501
in PEG-400, 293.15 K	0.0539
in PEG-400, 298.15 K	0.0582
in PEG-400, 303.15 K	0.062
in PEG-400, 308.15 K	0.0661

solubility (mole fraction)
Conditions	288.15 K	293.15 K	298.15 K	303.15 K	308.15 K
in THF	0.0211	0.0235	0.0261	0.0291	0.0321
in acetone	0.0125	0.0147	0.0173	0.0201	0.023
in dichloromethane	0.00254	0.00334	0.00429	0.00556	0.00722
in ethanol	0.000677	0.000846	0.00106	0.00128	0.00158
in ethyl acetate	0.0015	0.00189	0.00239	0.00292	0.00362
in glycerin	0.000273	0.000307	0.000342	0.00038	0.000421
in isopropanol	0.000421	0.000555	0.000726	0.000947	0.00124
in methanol	0.000767	0.000959	0.0012	0.00149	0.00185
in n-butanol	0.000678	0.00079	0.000924	0.00108	0.00125
in n-propanol	0.000634	0.000791	0.000996	0.00122	0.00149
in propylene glycol	0.00138	0.00155	0.00174	0.00193	0.00213
